Reference: patent EP4813991A1 (iLeadBMS Co., Ltd., priority 2023, dated 2025)
Read-outs that look alike come from different tables or passages of the source.

What was measured:
CDK12 [1] = molecular target: T1, CDK12 (Homo sapiens, UniProt Q9NYV4); experiment: Cellular CDK12 inhibitory activity assay (Ser2 phosphorylation of RNA polymerase II subunit B1 CTD in MDA-MB-231 cells); assay type: cell-based; parameters: using MDA-MB-231 breast cancer cells; endogenous in cells; host or cells: MDA-MB-231
T1 sequence (Q9NYV4 whole entry, species assumed): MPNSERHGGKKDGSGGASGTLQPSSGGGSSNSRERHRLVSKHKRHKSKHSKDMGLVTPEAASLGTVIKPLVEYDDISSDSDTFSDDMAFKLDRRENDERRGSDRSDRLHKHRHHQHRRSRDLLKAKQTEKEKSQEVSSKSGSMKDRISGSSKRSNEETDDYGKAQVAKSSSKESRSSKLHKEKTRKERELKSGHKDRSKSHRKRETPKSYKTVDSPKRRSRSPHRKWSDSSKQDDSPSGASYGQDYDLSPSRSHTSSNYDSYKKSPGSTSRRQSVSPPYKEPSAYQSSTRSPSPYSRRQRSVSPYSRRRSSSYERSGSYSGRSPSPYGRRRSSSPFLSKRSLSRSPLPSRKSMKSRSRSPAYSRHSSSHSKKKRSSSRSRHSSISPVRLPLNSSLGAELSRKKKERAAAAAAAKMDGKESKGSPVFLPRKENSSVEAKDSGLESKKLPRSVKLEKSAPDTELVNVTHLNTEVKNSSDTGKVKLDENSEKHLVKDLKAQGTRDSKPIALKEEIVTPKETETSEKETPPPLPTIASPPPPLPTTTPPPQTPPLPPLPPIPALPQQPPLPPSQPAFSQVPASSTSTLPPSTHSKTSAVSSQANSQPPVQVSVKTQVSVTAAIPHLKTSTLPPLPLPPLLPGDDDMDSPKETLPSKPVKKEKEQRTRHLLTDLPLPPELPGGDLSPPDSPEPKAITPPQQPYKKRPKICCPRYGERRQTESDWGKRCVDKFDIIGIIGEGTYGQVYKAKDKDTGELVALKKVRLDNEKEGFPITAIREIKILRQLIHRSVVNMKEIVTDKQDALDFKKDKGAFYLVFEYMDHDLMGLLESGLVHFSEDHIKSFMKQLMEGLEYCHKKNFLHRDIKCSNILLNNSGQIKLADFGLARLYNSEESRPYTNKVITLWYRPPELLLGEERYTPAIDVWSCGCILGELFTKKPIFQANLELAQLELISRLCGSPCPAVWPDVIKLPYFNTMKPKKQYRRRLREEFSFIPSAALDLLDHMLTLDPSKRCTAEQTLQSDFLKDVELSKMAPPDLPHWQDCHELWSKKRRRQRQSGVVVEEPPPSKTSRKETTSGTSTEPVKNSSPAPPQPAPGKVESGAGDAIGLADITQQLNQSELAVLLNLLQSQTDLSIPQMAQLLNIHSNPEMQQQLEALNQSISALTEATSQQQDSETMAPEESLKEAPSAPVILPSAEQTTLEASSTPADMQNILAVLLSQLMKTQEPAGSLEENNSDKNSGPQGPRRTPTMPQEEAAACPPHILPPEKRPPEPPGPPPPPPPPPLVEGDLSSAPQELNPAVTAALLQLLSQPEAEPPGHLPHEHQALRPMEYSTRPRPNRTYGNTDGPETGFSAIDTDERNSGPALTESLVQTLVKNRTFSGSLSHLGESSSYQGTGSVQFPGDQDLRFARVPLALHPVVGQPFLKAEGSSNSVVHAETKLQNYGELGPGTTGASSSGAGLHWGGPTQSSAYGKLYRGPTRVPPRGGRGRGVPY
T1 sequence (O75909 whole entry partner, species assumed): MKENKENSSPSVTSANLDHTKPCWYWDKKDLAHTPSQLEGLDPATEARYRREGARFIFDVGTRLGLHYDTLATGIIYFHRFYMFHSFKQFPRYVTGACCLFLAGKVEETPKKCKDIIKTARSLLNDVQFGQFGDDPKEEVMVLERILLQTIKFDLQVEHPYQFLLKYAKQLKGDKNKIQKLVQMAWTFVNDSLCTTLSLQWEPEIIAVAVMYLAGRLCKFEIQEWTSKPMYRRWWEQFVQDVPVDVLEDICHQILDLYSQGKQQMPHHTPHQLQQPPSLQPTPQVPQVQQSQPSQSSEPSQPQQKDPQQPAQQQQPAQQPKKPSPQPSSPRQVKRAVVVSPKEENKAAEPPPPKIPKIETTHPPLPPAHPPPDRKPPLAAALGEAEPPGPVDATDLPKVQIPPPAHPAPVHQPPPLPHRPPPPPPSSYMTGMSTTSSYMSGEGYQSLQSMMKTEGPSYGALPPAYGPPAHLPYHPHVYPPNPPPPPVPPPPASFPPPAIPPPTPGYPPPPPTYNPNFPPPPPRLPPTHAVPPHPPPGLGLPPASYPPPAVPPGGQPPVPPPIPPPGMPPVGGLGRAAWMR
Experimental: MDA-MB-231 cells were dispensed into a 96-well plate at 100 µL of cell suspension per well using L-15 (Invitrogen) medium containing 10 % FBS, followed by overnight incubation in a cell incubator at 37 °C and 0 % CO2. The next day, each Example compound dissolved in DMSO across 9 concentration ranges and a DMSO control group were treated on the MDA-MB-231 cells at 37 °C and 0 % CO2 for 6 hours. After the compound treatment, the medium in the 96-well plate was removed, and 60 µL of a fixing solution (4.0 % paraformaldehyde in PBS) was added to each well, followed by standing for 20 minutes. After removing the fixing solution and washing with PBS, 60 µL of PBS containing 0.1 % Triton X-100 was dispensed into each well, followed by shaking at room temperature for 15 minutes. After washing with PBS, 100 µL of blocking buffer was added, followed by shaking at room temperature for 1 hour. After removing the blocking buffer, primary antibodies, which are RNA polymerase II subunit B1 phospho-Ser2 (1:500, Cell signaling technology) and RNA polymerase II subunit B1 carboxy-terminal domain (1:200, Cell signaling technology), were added at 60 µL per well and reacted overnight at 4 °C. After adding 150 µL of PBS containing 0.1 % Triton X-100 and washing at least twice by shaking at room temperature for 5 minutes, 60 µL of a secondary antibody was added, followed by shaking at room temperature for 1 hour while blocking light. After adding 150 µL of PBS containing 0.1 % Triton X-100 and washing at least twice by shaking at room temperature for 5 minutes, 150 µL of PBS was added again, followed by washing at least twice by shaking at room temperature for 5 minutes. The plate was scanned using a Li-COR Odyssey machine with the wells filled with PBS. IC50 values were calculated by fitting a dose-response curve using a 4-parameter model of Prism (Graphpad) software.

[2] = system: MDA-MB-231 breast cancer cells; experiment: Proliferation inhibitory activity assay against MDA-MB-231 breast cancer cells; assay type: cell-based; details: Homo sapiens, 72 hours, CellTiter Glo, relative IC50
Experimental: Experiments were performed using the MDA-MB-231 breast cancer cell line to measure the cell proliferation inhibitory ability of each Example compound. MDA-MB-231 cells were dispensed into a 96-well plate at 100 µL of cell suspension per well using L-15 (Invitrogen) medium containing 10 % FBS, followed by incubation in a cell incubator at 37 °C and 0 % CO2. The next day, each Example compound dissolved and diluted in DMSO across 9 concentration ranges and a DMSO control group were treated on the cells for 72 hours. After the compound treatment was completed, 100 µL of CellTiter Glo (Promega) reagent was added to each well of the 96-well plate, followed by shaking for 10 minutes and standing at room temperature for 10 minutes. Luminescence signals were measured after inserting the 96-well plate into an Envision plate reader (PerkinElmer). Relative IC50 values were calculated by fitting a dose-response curve using XLfit (IDBS Ltd) software.
The breast cancer cell proliferation inhibitory activities of the Example compounds measured by the above method were evaluated according to the following criteria, and the results are presented in Table 13.

CDK12 [3] = molecular target: T1, CDK12; experiment: CDK12 kinase inhibitory activity assay (33P-ATP filter binding); assay type: biochemical
Experimental: (§1) Before initiating the CDK12 and CDK13 kinase reactions, each Example compound was dissolved and diluted in DMSO as a solvent across 9 concentration ranges at room temperature. The diluted solutions were then incubated with a mixture of kinase and substrate (and cofactors, if required) for 20 minutes. Next, radioisotope-labeled ATP (^33P-gamma-ATP) was added to proceed with the kinase reaction at room temperature for 120 minutes. After the reaction was completed, the reaction mixture was transferred to a filter paper that binds the radioisotope-labeled catalytic product (^33P-substrate). Unreacted ^33P-ATP was removed by washing with 0.75 % phosphoric acid, and then the radioactive phosphorylated substrate remaining on the filter paper was measured. Kinase activity data were expressed as a percentage of the kinase activity remaining in the test sample compared to a DMSO control group. The half-maximal inhibitory concentration (IC50) for each kinase was calculated using Prism (Graphpad) software.

CDK13 = CDK13 (Homo sapiens, UniProt Q14004); experiment: CDK13 kinase inhibitory activity assay (33P-ATP filter binding); assay type: biochemical
Sequence of CDK13 (Q14004 whole entry, species assumed): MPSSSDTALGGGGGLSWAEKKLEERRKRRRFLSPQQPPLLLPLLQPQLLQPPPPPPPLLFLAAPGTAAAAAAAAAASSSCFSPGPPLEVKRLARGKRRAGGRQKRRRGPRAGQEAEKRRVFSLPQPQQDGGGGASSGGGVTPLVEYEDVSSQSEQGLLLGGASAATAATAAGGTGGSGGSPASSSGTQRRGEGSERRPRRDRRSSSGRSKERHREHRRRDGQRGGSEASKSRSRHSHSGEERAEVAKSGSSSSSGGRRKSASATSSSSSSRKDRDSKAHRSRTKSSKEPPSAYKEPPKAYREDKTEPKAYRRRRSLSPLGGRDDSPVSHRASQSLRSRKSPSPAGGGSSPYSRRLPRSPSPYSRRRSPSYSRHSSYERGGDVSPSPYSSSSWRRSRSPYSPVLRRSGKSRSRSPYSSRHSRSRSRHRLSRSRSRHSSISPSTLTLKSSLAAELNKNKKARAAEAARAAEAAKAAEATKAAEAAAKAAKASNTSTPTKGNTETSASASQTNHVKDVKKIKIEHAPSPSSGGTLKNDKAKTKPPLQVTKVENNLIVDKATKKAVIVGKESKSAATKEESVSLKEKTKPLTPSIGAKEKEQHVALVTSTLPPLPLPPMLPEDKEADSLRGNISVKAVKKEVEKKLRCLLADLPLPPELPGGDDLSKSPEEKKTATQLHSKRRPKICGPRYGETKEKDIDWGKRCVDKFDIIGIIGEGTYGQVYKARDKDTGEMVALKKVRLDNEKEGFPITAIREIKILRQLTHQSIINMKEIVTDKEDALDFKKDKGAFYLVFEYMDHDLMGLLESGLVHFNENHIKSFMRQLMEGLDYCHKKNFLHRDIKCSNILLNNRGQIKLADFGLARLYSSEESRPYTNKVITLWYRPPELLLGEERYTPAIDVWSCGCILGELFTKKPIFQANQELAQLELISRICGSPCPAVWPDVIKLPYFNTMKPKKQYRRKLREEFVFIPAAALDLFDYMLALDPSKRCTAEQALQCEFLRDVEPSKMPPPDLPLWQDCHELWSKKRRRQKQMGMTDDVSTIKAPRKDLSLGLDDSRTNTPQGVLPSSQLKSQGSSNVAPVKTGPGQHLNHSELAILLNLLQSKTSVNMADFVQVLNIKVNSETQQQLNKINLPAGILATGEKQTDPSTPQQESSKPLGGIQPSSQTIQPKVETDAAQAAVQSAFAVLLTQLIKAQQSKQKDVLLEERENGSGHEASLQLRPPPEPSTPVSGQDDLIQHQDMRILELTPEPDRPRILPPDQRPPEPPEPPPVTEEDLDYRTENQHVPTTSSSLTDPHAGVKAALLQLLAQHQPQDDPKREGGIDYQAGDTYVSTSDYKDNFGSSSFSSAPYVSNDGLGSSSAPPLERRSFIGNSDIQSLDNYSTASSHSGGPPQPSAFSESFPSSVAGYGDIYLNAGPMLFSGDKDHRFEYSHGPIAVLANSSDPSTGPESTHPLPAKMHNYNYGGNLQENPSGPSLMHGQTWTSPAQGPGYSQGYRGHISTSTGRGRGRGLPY
Sequence of CDK13 (O75909 whole entry partner, species assumed): as the sequence (O75909 whole entry partner, species assumed) above
Experimental: as §1

[4] = MDA-MB-231 cells, 6 hours treatment, read-out: pRpbl CTD S2 IC50
[5] = kinase reaction 120 minutes, 33P-gamma-ATP, read-out: CDK12 IC50
[6] = kinase reaction 120 minutes, 33P-gamma-ATP, read-out: CDK13 IC50

Structure (SMILES)	IC50 (CDK12 [1]; [4])	IC50 [2]	IC50 (CDK12 [3]; [5])	IC50 (CDK13; [6])	IC50 (CDK12 [1])	IC50 (CDK12 [3])	IC50 (CDK13)	IC50 (CDK12 [3]; read-out: CDK12 IC50, kinase reaction 120 minutes, 33P-gamma-ATP)
Fc1ccc2nc(CNc3cc(N4CCC4)nn4c(C(F)(F)F)cnc34)[nH]c2c1F [Example 15]	0.3 to 3 µM	≤ 0.05 µM	0.1 to 0.5 µM	< 0.1 µM	–	–	–	–
Fc1ccc2nc(CNc3cc(N4CCOCC4)nn4c(I)cnc34)[nH]c2c1F [Example 26, N-((6,7-difluoro-1H-benzo[d]imidazol-2-yl)methyl)-3-iodo-6-morpholinoimidazo[1.2-b]pyridazin-8-amine]	–	> 0.5 µM	–	–	> 3 µM	> 0.5 µM	> 0.5 µM	–
OC1CC2(C1)CN(c1cc(NCc3nc4cc(Cl)c(Cl)cc4[nH]3)c3ncc(C(F)(F)F)n3n1)C2 [Example 47, 2-(8-(((5,6-dichloro-1H-benzo[d]imidazol-2-yl)methyl)amino)-3-(trifluoromethyl)imidazo[1,2-b]pyridazin-6-yl)-2-azaspiro[3.3]heptan-6-ol]	< 0.3 µM	≤ 0.05 µM	0.1 to 0.5 µM	< 0.1 µM	–	–	–	–
FC(F)(F)c1cnc2c(NCc3nc4cc(Cl)c(Cl)cc4[nH]3)cc(N3CC4CC(C3)O4)nn12 [Example 32]	< 0.3 µM	≤ 0.05 µM	–	0.1 to 0.5 µM	–	–	–	0.1 to 0.5 µM
FC(F)(F)c1cnc2c(NCc3cc4cccnc4[nH]3)cc(N3CCOCC3)nn12 [Example 84, N-((1H-pyrrolo[2,3-b]pyridin-2-yl)methyl)-6-morpholino-3-(trifluoromethyl)imidazo[1,2-b]pyridazin-8-amine]	0.3 to 3 µM	0.05 to 0.5 µM	< 0.1 µM	–	–	–	< 0.1 µM	–
FC(F)(F)c1cnc2c(NCc3nc4cc(Cl)c(Cl)cc4[nH]3)cc(N3CC4CC(C4)C3)nn12 [Example 31, 6-(3-azabicyclo[3.1.1]heptan-3-yl)-N-((5,6-dichloro-1H-benzo[d]imidazol-2-yl)methyl)-3-(trifluoromethyl)imidazo[1,2-b]pyridazin-8-amine]	0.3 to 3 µM	> 0.5 µM	> 0.5 µM	0.1 to 0.5 µM	–	–	–	–
Cc1cc2[nH]c(CNc3cc(N4CCOCC4)nn4c(C(F)(F)F)cnc34)nc2cc1C(F)(F)F [Example 80, N-((6-methyl-5-(trifluoromethyl)-1H-benzo[d]imidazol-2-yl)methyl)-6-morpholino-3-(trifluoromethyl)imidazo[1,2-b]pyridazin-8-amine]	< 0.3 µM	≤ 0.05 µM	< 0.1 µM	< 0.1 µM	–	–	–	–
N[C@H]1CCN(c2cc(NCc3nc4ccc(F)c(F)c4[nH]3)c3ncc(C(F)(F)F)n3n2)C1 [Example 38]	< 0.3 µM	≤ 0.05 µM	< 0.1 µM	< 0.1 µM	–	–	–	–
Fc1ccc2nc(CNc3cc(N4CC5CCC4CO5)nn4c(C(F)(F)F)cnc34)[nH]c2c1F (stereo not shown) [Example 12]	< 0.3 µM	≤ 0.05 µM	–	< 0.1 µM	–	< 0.1 µM	–	–
NC(=O)C1CN(c2cc(NCc3nc4cc(Cl)c(Cl)cc4[nH]3)c3ncc(C(F)(F)F)n3n2)C1 [Example 65, 1-(8-(((5,6-dichloro-1H-benzo[d]imidazol-2-yl)methyl)amino)-3-(trifluoromethyl)imidazo[1,2-b]pyridazin-6-yl)azetidine-3-carboxamide]	< 0.3 µM	0.05 to 0.5 µM	< 0.1 µM	< 0.1 µM	–	–	–	–
O[C@@H]1CCN(c2cc(NCc3nc4cc(Cl)c(Cl)cc4[nH]3)c3ncc(C(F)(F)F)n3n2)C1 [Example 62, (R)-1-(8-(((5,6-dichloro-1H-benzo[d]imidazol-2-yl)methyl)amino)-3-(trifluoromethyl)imidazo[1,2-b]pyridazin-6-yl)pyrrolidin-3-ol]	< 0.3 µM	0.05 to 0.5 µM	0.1 to 0.5 µM	–	–	–	0.1 to 0.5 µM	–
FC(F)(F)c1cnc2c(NCc3cc4ncccc4[nH]3)cc(N3CCOCC3)nn12 [Example 87, N-((1H-pyrrolo[3,2-b]pyridin-2-yl)methyl)-6-morpholino-3-(trifluoromethyl)imidazo[1,2-b]pyridazin-8-amine]	0.3 to 3 µM	0.05 to 0.5 µM	< 0.1 µM	–	–	–	< 0.1 µM	–
O=C(CO)NC1CN(c2cc(NCc3nc4cc(Cl)c(Cl)cc4[nH]3)c3ncc(C(F)(F)F)n3n2)C1 [Example 103, N-(1-(8-(((5,6-dichloro-1H-benzo[d]imidazol-2-yl)methyl)amino)-3-(trifluoromethyl)imidazo[1,2-b]pyridazin-6-yl)azetidin-3-yl)-2-hydroxyacetamide]	0.3 to 3 µM	0.05 to 0.5 µM	< 0.1 µM	< 0.1 µM	–	–	–	–
Fc1ccc2nc(CNc3cc(N4CCOCC4)nn4c(C#CC5CC5)cnc34)[nH]c2c1F [Example 25, 3-(cyclopropylethynyl)-N-((6,7-difluoro-1H-benzo[d]imidazol-2-yl)methyl)-6-morpholinoimidazo[1,2-b]pyridazin-8-amine]	> 3 µM	> 0.5 µM	> 0.5 µM	> 0.5 µM	–	–	–	–
CC1(O)CCN(c2cc(NCc3nc4cc(Cl)c(Cl)cc4[nH]3)c3ncc(C(F)(F)F)n3n2)CC1 [Example 53, 1-(8-(((5,6-dichloro-1H-benzo[d]imidazol-2-yl)methyl)amino)-3-(trifluoromethyl)imidazo[1,2-b]pyridazin-6-yl)-4-methylpiperidin-4-ol]	< 0.3 µM	≤ 0.05 µM	0.1 to 0.5 µM	0.1 to 0.5 µM	–	–	–	–
OCC1CN(c2cc(NCc3nc4cc(Cl)c(Cl)cc4[nH]3)c3ncc(C(F)(F)F)n3n2)C1 [Example 60, (1-(8-(((5,6-dichloro-1H-benzo[d]imidazol-2-yl)methyl)amino)-3-(trifluoromethyl)imidazo[1,2-b]pyridazin-6-yl)azetidin-3-yl)methanol]	0.3 to 3 µM	0.05 to 0.5 µM	0.1 to 0.5 µM	–	–	–	< 0.1 µM	–
Nc1ncc(-c2cc(NCc3nc4ccc(F)c(F)c4[nH]3)c3ncc(C#CC4CC4)n3n2)cn1 [Example 21, 6-(2-aminopyrimidin-5-yl)-3-(cyclopropylethynyl)-N-((6,7-difluoro-1H-benzo[d]imidazol-2-yl)methyl)imidazo[1,2-b]pyridazin-8-amine]	> 3 µM	> 0.5 µM	> 0.5 µM	> 0.5 µM	–	–	–	–
NC(=O)N1CCN(c2cc(NCc3nc4ccc(F)c(F)c4[nH]3)c3ncc(C(F)(F)F)n3n2)CC1 [Example 92, 4-(8-(((6,7-difluoro-1H-benzo[d]imidazol-2-yl)methyl)amino)-3-(trifluoromethyl)imidazo[1,2-b]pyridazin-6-yl)piperazine-1-carboxamide]	0.3 to 3 µM	0.05 to 0.5 µM	< 0.1 µM	–	–	–	< 0.1 µM	–
Cc1cc(C)n2cc(CNc3cc(N4CCOCC4)nn4c(C(F)(F)F)cnc34)nc2n1 [Example 88, N-((5,7-dimethylimidazo[1,2-a]pyrimidin-2-yl)methyl)-6-morpholino-3-(trifluoromethyl)imidazo[1,2-b]pyridazin-8-amine]	0.3 to 3 µM	0.05 to 0.5 µM	< 0.1 µM	–	–	–	< 0.1 µM	–
